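Step 1: Grow cells in 96-well plates. Step 2: Expose to compound for 48 hours at 5 concentrations. Step 3: Interpolate endpoints linearly; if unreached, use highest concentration. GI50 = concentration required for 50% inhibition of growth.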 Active and inactive are the calls of the source. No stated cut-off is given here; in the data, active = GI50 up to about 1.1 µM and inactive = higher.
Legend:
Assay in all cases: NCI tumour cell line growth inhibition, 48 h
SNB-75 = system: SNB-75
LXFL 529 = system: LXFL 529
K562 = system: K562
NCI-H23 = system: NCI-H23
NCI-H226 = system: NCI-H226
UACC-257 = system: UACC-257
DMS-114 = system: DMS-114
HOP-18 = system: HOP-18
DLD-1 = system: DLD-1
MOLT-4 = system: MOLT-4
Malme-3M = system: Malme-3M
A498 = system: A498
UACC-62 = system: UACC-62
PC-3 = system: PC-3
MDA-MB-435 = system: MDA-MB-435
DU-145 = system: DU-145
NCI/ADR-RES = system: NCI/ADR-RES
MDA-N = system: MDA-N
MCF7 = system: MCF7
MDA-MB-231 = system: MDA-MB-231

Measured: GI50

CC(SC1=CC(=O)c2c(O)ccc(O)c2C1=O)C(=O)O (stereo not drawn)
inactive: SNB-75 > 50.5 µM | LXFL 529 > 35.5 µM | K562 13.8 µM | NCI-H23 > 56.4 µM | NCI-H226 > 58.5 µM | UACC-257 35.5 µM | DMS-114 19.5 µM | HOP-18 > 55.3 µM | DLD-1 > 39.8 µM | MOLT-4 7.48 µM | Malme-3M > 44.5 µM | A498 > 62.7 µM | UACC-62 17.5 µM

COc1ccc(C(c2ccc(C(C)C)cc(=O)c2O)c2c(O)cc3oc(-c4ccccc4)cc(=O)c3c2O)cc1 (stereo not drawn)
inactive: SNB-75 4.51 µM | LXFL 529 14 µM | K562 3.03 µM | NCI-H23 4.79 µM | UACC-257 27.4 µM | HOP-18 17.3 µM | DLD-1 4.11 µM | MOLT-4 5.73 µM | A498 18.6 µM | UACC-62 6.65 µM

CC1NC(=O)C2=C1C(N)=NC(=O)C2 (stereo not drawn)
inactive: SNB-75 > 100 µM | LXFL 529 > 100 µM | K562 > 100 µM | NCI-H23 > 100 µM | NCI-H226 > 100 µM | UACC-257 > 100 µM | DMS-114 > 100 µM | HOP-18 > 100 µM | DLD-1 > 100 µM | MOLT-4 > 100 µM | Malme-3M > 100 µM | UACC-62 > 100 µM

COc1cccc(/C=C/C(=O)c2sc(C(N)=S)nc2C)c1O
inactive: SNB-75 > 100 µM | LXFL 529 14.3 µM | K562 42.4 µM | NCI-H23 68.1 µM | NCI-H226 > 100 µM | UACC-257 > 100 µM | DMS-114 50.6 µM | HOP-18 > 41.5 µM | DLD-1 28.3 µM | MOLT-4 25.1 µM | Malme-3M > 100 µM | A498 > 100 µM | UACC-62 > 100 µM

N#Cc1ccccc1C(Cl)(Cl)c1cnccn1
inactive: LXFL 529 75.9 µM | K562 34.3 µM | NCI-H23 38.5 µM | NCI-H226 36.6 µM | UACC-257 88.1 µM | DMS-114 22.4 µM | HOP-18 > 100 µM | DLD-1 47.3 µM | MOLT-4 22.6 µM | A498 92.7 µM | UACC-62 30.5 µM

CC1CCC(=O)C(C(O)CC2CC(=O)N(c3ccccc3)C(=O)C2)C1 (stereo not drawn)
inactive: SNB-75 > 100 µM | LXFL 529 > 100 µM | K562 > 100 µM | NCI-H23 > 100 µM | NCI-H226 > 100 µM | UACC-257 > 100 µM | DMS-114 > 100 µM | HOP-18 > 100 µM | DLD-1 > 100 µM | MOLT-4 > 100 µM | Malme-3M > 100 µM | A498 > 100 µM | UACC-62 > 100 µM

Cc1cc(O)nc(NNC(C#N)c2ccc(O)cc2)n1 (stereo not drawn)
inactive: SNB-75 > 100 µM | LXFL 529 > 100 µM | K562 > 100 µM | NCI-H23 > 100 µM | NCI-H226 > 100 µM | UACC-257 > 100 µM | DMS-114 > 100 µM | HOP-18 > 100 µM | DLD-1 > 100 µM | MOLT-4 > 100 µM | Malme-3M > 100 µM | UACC-62 > 100 µM

CC(=O)n1nnc2ccc([N+](=O)[O-])cc21
inactive: SNB-75 > 100 µM | LXFL 529 > 100 µM | K562 > 100 µM | NCI-H23 > 100 µM | NCI-H226 > 100 µM | UACC-257 > 100 µM | DMS-114 > 100 µM | HOP-18 90.6 µM | DLD-1 > 100 µM | MOLT-4 > 100 µM | Malme-3M > 100 µM | UACC-62 > 100 µM

CCOC(=O)/C=C1\Oc2ccccc2C1(C)O (stereo not drawn)
inactive: SNB-75 > 100 µM | LXFL 529 > 100 µM | K562 > 100 µM | NCI-H23 > 100 µM | NCI-H226 > 100 µM | UACC-257 > 100 µM | DMS-114 > 100 µM | HOP-18 > 100 µM | DLD-1 > 100 µM | MOLT-4 > 100 µM | Malme-3M > 100 µM | A498 > 100 µM | UACC-62 > 100 µM

C#C[C@H](CCCC)OC(=O)N[C@H](C)c1ccccc1
inactive: SNB-75 41.2 µM | LXFL 529 36.3 µM | K562 34.6 µM | UACC-257 24.8 µM | DMS-114 28.2 µM | HOP-18 > 100 µM | DLD-1 55.2 µM | MOLT-4 31.3 µM | UACC-62 80.9 µM

CC(=O)C1CC(C)=CCC12C(=O)Nc1ccccc12 (stereo not drawn)
inactive: SNB-75 > 100 µM | LXFL 529 > 100 µM | K562 > 100 µM | NCI-H23 > 100 µM | NCI-H226 > 100 µM | DMS-114 > 100 µM | HOP-18 > 100 µM | DLD-1 > 100 µM | MOLT-4 43 µM | Malme-3M > 100 µM | A498 > 100 µM | UACC-62 68.1 µM

NC(=O)c1ccccc1NC(=O)C(=O)Nc1n[nH]c(N)n1
inactive: SNB-75 > 100 µM | LXFL 529 > 100 µM | K562 > 100 µM | NCI-H23 > 100 µM | NCI-H226 > 100 µM | UACC-257 > 100 µM | HOP-18 > 100 µM | DLD-1 > 100 µM | MOLT-4 > 100 µM | Malme-3M > 100 µM | A498 > 100 µM | UACC-62 > 100 µM

COC(=O)C#CC(N)=O
inactive: SNB-75 35.1 µM | LXFL 529 > 100 µM | K562 21.8 µM | NCI-H23 > 100 µM | NCI-H226 > 100 µM | UACC-257 27.7 µM | DMS-114 > 100 µM | HOP-18 53.5 µM | DLD-1 > 100 µM | MOLT-4 22.3 µM | Malme-3M 13.4 µM | A498 > 100 µM | UACC-62 > 64.7 µM

COc1ccc2c(c1)c(=O)c1ccccc1n2/C=C/C(=O)O
inactive: SNB-75 > 100 µM | LXFL 529 > 100 µM | K562 > 100 µM | NCI-H23 > 100 µM | NCI-H226 > 100 µM | UACC-257 > 100 µM | DMS-114 > 83.6 µM | HOP-18 > 100 µM | DLD-1 > 47 µM | MOLT-4 > 100 µM | Malme-3M > 100 µM | A498 > 100 µM | UACC-62 > 100 µM

CC1OC(n2cc(F)c(=O)[nH]c2=O)CCC1O (stereo not drawn)
inactive: PC-3 > 100 µM | SNB-75 > 72.9 µM | MDA-MB-435 > 100 µM | LXFL 529 > 100 µM | DU-145 > 77.6 µM | NCI/ADR-RES > 100 µM | K562 > 100 µM | MDA-N 91.2 µM | NCI-H23 > 100 µM | NCI-H226 > 100 µM | UACC-257 > 100 µM | MCF7 30.1 µM | MDA-MB-231 > 100 µM | HOP-18 67.5 µM | DLD-1 > 100 µM | MOLT-4 > 100 µM | Malme-3M 99.8 µM | A498 > 66.5 µM | UACC-62 > 100 µM

COc1cc(/C=C2/C(=O)NC(Cc3cc(OC)c(OC)c(C)c3OC)C(=O)N2Cc2ccccc2)c(OC)c(C)c1OC (stereo not drawn)
inactive: SNB-75 45.6 µM | LXFL 529 34.8 µM | K562 44.2 µM | NCI-H23 79.8 µM | NCI-H226 58.6 µM | UACC-257 61.5 µM | DMS-114 38.2 µM | HOP-18 18.3 µM | DLD-1 72.3 µM | MOLT-4 23 µM | Malme-3M 30.8 µM | A498 44.4 µM | UACC-62 89.7 µM

CN[C@@H](C)[C@@H](NC)c1ccccc1
inactive: SNB-75 > 100 µM | LXFL 529 > 100 µM | K562 > 100 µM | NCI-H23 > 100 µM | NCI-H226 > 100 µM | UACC-257 > 100 µM | DMS-114 > 100 µM | HOP-18 > 100 µM | DLD-1 > 100 µM | MOLT-4 > 100 µM | A498 > 100 µM | UACC-62 > 100 µM

COc1cc(/C=C\c2cccnc2)cc(OC)c1OC
inactive: SNB-75 58.3 µM | LXFL 529 48.1 µM | K562 24.5 µM | NCI-H23 66.8 µM | NCI-H226 > 100 µM | UACC-257 68.4 µM | DMS-114 46.8 µM | HOP-18 > 100 µM | DLD-1 72.1 µM | MOLT-4 9.84 µM | Malme-3M 64.9 µM | UACC-62 46.3 µM

O=C(NCCNCCO)N/N=C/c1cccc([N+](=O)[O-])c1
inactive: SNB-75 > 100 µM | LXFL 529 > 100 µM | K562 > 100 µM | NCI-H23 > 100 µM | NCI-H226 > 100 µM | UACC-257 > 100 µM | DMS-114 > 100 µM | HOP-18 > 100 µM | DLD-1 > 100 µM | MOLT-4 > 100 µM | Malme-3M > 100 µM | A498 > 100 µM | UACC-62 > 100 µM

CN(C)CCC1(C2=CCCC2)CC/C(=C\c2ccccc2)C1=O (stereo not drawn)
inactive: SNB-75 17 µM | LXFL 529 16.1 µM | K562 13.8 µM | NCI-H23 21.8 µM | NCI-H226 16.9 µM | UACC-257 15.2 µM | DMS-114 16.1 µM | HOP-18 15.8 µM | DLD-1 17.3 µM | MOLT-4 14.3 µM | Malme-3M 15.7 µM | A498 15.5 µM | UACC-62 13.6 µM

CCCCCC[N+](C)(C)Cc1ccc(C[N+](C)(C)CCCCCC)cc1
inactive: SNB-75 2.8 µM | LXFL 529 3.33 µM | K562 1.61 µM | NCI-H23 1.82 µM | NCI-H226 3.51 µM | UACC-257 10.8 µM | DMS-114 1.75 µM | HOP-18 4.69 µM | DLD-1 4.42 µM | MOLT-4 1.54 µM | Malme-3M 7.76 µM | A498 11.2 µM | UACC-62 8.32 µM
